# Source: patent US10500209B2, “Quinazolinones as bromodomain inhibitors” (Zenith Epigenetics Ltd., priority 2013, dated 2019)
# Key:
# [1] = target: T1, Brd4 bromodomain 1 (BRD4(1)) (Homo sapiens, UniProt O60885); assay: Inhibition of tetra-acetylated histone H4 binding to BET bromodomains (TR-FRET); set-up: key: Active: Compounds with an IC50 value less than 30 μM were deemed to be active.; Not Active: Compounds with an IC50 value less than 30 μM were deemed to be active; conditions: first bromodomain of Brd4, tetra-acetylated histone H4 peptide
# T1 construct: made in house; host or cells: E. coli BL21(DE3)
# Method: Proteins were cloned and overexpressed with a N-terminal 6×His tag, then purified by nickel affinity followed by size exclusion chromatography. Briefly, E. coli BL21(DE3) cells were transformed with a recombinant expression vector encoding N-terminally Nickel affinity tagged bromodomains from Brd2, Brd3, Brd4. Cell cultures were incubated at 37° C. with shaking to the appropriate density and induced overnight with IPTG. The supernatant of lysed cells was loaded onto Ni-IDA column for purification. Eluted protein is pooled, concentrated and further purified by size exclusion chromatography. Fractions representing monomeric protein were pooled, concentrated, aliquoted, and frozen at −80° C. for use in subsequent experiments.
# Binding of tetra-acetylated histone H4 and BET bromodomains was confirmed by a Time Resolved Fluorescence Resonance Energy Transfer (TR-FRET) method. N-terminally His-tagged bromodomains (200 nM) and biotinylated tetra-acetylated histone H4 peptide (25-50 nM, Millipore) were incubated in the presence of Europium Cryptate-labeled streptavidin (Cisbio Cat. #610SAKLB) and XL665-labeled monoclonal anti-His antibody (Cisbio Cat. #61HISXLB) in a white 96 well microtiter plate (Greiner). For inhibition assays, serially diluted test compound was added to these reactions in a 0.2% final concentration of DMSO. Final buffer concentrations were 30 mM HEPES pH 7.4, 30 mM NaCl, 0.3 mM CHAPS, 20 mM phosphate pH 7.0, 320 mM KF, 0.08% BSA). After a 2-h incubation at room temperature, the fluorescence by FRET was measured at 665 and 620 nm by a SynergyH4 plate reader (Biotek). The binding inhibitory activity was shown by a decrease in 665 nm fluorescence relative to 620 nm. IC50 values were determined from a dose response curve.
# c-myc in MV4-11 cells = assay: Inhibition of c-myc expression in cancer cell lines (mRNA, real-time PCR); assay type: cell-based, Human; set-up: key: Active: Compounds with an IC50 value less than 30 μM were deemed to be active.; Not Active: Compounds with an IC50 value less than 30 μM were deemed to be active; conditions: 3 h
# Method: MV4-11 cells (2.5×10^4 cells) were plated in 96 well U-bottom plates with test compound or DMSO (0.1%), and incubated for 3 h at 37° C. Cells were then harvested by centrifugation, lysed, and mRNA was isolated using the mRNA catcher plus kit (Invitrogen). Reverse transcription of the mRNA and duplex amplification of the c-myc and cyclophilin cDNAs was performed using the RNA Ultrasense kit (Invitrogen) and a ViiA7 real-time PCR machine (Applied Biosystems). IC50 values were determined from a dose response curve.
# human AML MV-4-11 cells = assay: Inhibition of cell proliferation in cancer cell lines (CellTiter Aqueous One); assay type: cell-based; set-up: key: Active: Compounds with an IC50 value less than 30 μM were deemed to be active.; Not Active: Compounds with an IC50 value less than 30 μM were deemed to be active; conditions: 72 h
# Method: MV4-11 cells: 96-well plates were seeded with 5×10^4 cells per well of exponentially growing human AML MV-4-11 (CRL-9591) cells and immediately treated with two-fold dilutions of test compounds, ranging from 30 μM to 0.2 μM. Triplicate wells were used for each concentration, as well as a media only and three DMSO control wells. The cells and compounds were incubated at 37° C., 5% CO2 for 72 h before adding 20 μL of the CellTiter Aqueous One Solution (Promega) to each well and incubating at 37° C., 5% CO2 for an additional 3-4 h. The absorbance was taken at 490 nm in a spectrophotometer and the percentage of proliferation relative to DMSO-treated cells was calculated after correction from the blank well. IC50 were calculated using the GraphPad Prism software.
# hIL-6 mRNA = assay: Inhibition of hIL-6 mRNA transcription in LPS-stimulated U937 macrophages; assay type: cell-based, human; set-up: key: Active: Compounds with an IC50 value less than 30 μM were deemed to be active.; Not Active: Compounds with an IC50 value less than 30 μM were deemed to be active; conditions: U937 cells differentiated with PMA, LPS stimulation, 3 h
# Method: In this example, hIL-6 mRNA in tissue culture cells was quantitated to measure the transcriptional inhibition of hIL-6 when treated with a compound of the present disclosure.
# A human leukemic monocyte lymphoma cell line (U937) was plated (3.2×10^4 cells per well) in a 96-well plate in 100 μL RPMI-1640 containing 10% FBS and penicillin/streptomycin, and differentiated into macrophages for 3 days in 60 ng/mL PMA ([…]) at 37° C. in 5% CO2 prior to the addition of the compound of interest. The cells were pretreated for 1 h with the test compound prior to stimulation with 1 ug/mL lipopolysaccharide from Escherichia coli. The cells were incubated at 37° C. for 3 h before the cells were harvested. At time of harvest, the spent media was removed from the cells and the cells were rinsed in 200 μL PBS. Cell lysis solution (70 μL) was added the cells in each well and incubated for 5-10 min at room temperature, to allow for complete cell lysis and detachment. mRNA was then prepared using the “mRNA Catcher PLUS plate” (Invitrogen), according to the protocol supplied. After the last wash, as much wash buffer as possible was aspirated without allowing the wells to dry. Elution buffer (E3, 70 μL) was then added to each well. mRNA was then eluted by incubating the mRNA Catcher PLUS plate with Elution Buffer for 5 min at 68° C. and then immediately placing the plate on ice.
# The eluted mRNA isolated was then used in a one-step quantitative real-time PCR reaction, using components of the Ultra Sense Kit together with Applied Biosystems primer-probe mixes. Real-time PCR data was analyzed, normalizing the Ct values for hIL-6 to an internal control, prior to determining the fold induction of each unknown sample, relative to the control.
FRET activity BRD4(1) [1],c-myc activity (IC50 < 30 μM) (c-myc in MV4-11 cells),Cell Proliferation activity (IC50 < 30 μM) (human AML MV-4-11 cells),IL-6 activity (IC50 < 30 μM) (hIL-6 mRNA),melting point,Structure (SMILES)
Active,Active,Active,Active,–,"COc1ccc(-c2nc3cc(OC)cc(OC)c3c(=O)[nH]2)c(NC2CCN(C(C)=O)CC2)c1 [Example 39, 2-(2-((1-Acetylpiperidin-4-yl)amino)-4-methoxyphenyl)-5,7-dimethoxyquinazolin-4(3H)-one]"
Active,–,Not Active,Active,–,"COc1cnc(-c2nc3cc(OC)cc(OC)c3c(=O)[nH]2)c(N[C@H]2CC[C@@H](C(=O)NC(C)C)CC2)c1 [Example 45, cis-4-((2-(5,7-Dimethoxy-4-oxo-3,4-dihydroquinazolin-2-yl)-5-methoxypyridin-3-yl)amino)-N-isopropylcyclohexane-1-carboxamide]"
Active,–,Not Active,Active,198 to 199 °C,"COc1cc(OC)c2c(=O)[nH]c(-c3ncccc3NC3CCN(C(=O)NC(C)C)CC3)nc2c1 [Example 47, 4-((2-(5,7-Dimethoxy-4-oxo-3,4-dihydroquinazolin-2-yl)pyridin-3-yl)amino)-N-isopropylpiperidine-1-carboxamide]"

# The remaining lines, values behind:
Structure (SMILES),FRET activity BRD4(1) [1],c-myc activity (IC50 < 30 μM) (c-myc in MV4-11 cells),Cell Proliferation activity (IC50 < 30 μM) (human AML MV-4-11 cells),IL-6 activity (IC50 < 30 μM) (hIL-6 mRNA),melting point
"COc1ccc(-c2nc3cc(OC)cc(OC)c3c(=O)[nH]2)c(NC2CCN(C(C)C)CC2)c1 [Example 3, 2-(2-((1-isopropylpiperidin-4-yl)amino)-4-methoxyphenyl)-5,7-dimethoxyquinazolin-4(3H)-one]",Active,Active,Active,Active,248 to 250 °C
"COc1ccc(-c2nc3cc(OC)cc(OC)c3c(=O)[nH]2)c(NCC2CCN(C)C2)c1 (centres unmarked) [Example 7, 5,7-Dimethoxy-2-(4-methoxy-2-(((1-methylpyrrolidin-3-yl)methyl)amino)phenyl)-quinazolin-4(3H)-one]",Active,Active,Active,Active,233 to 235 °C
"COc1ccc(-c2nc3cc(OC)cc(OC)c3c(=O)[nH]2)c(NCCNC(C)C)c1 [Example 8, 2-(2-((2-(Isopropylamino)ethyl)amino)-4-methoxyphenyl)-5,7-dimethoxyquinazolin-4(3H)-one]",Active,Active,Active,Active,262 to 264 °C
"COc1ccc(NC2CCN(C(C)C)CC2)c(-c2nc3cc(OC)cc(OC)c3c(=O)[nH]2)c1 [Example 26, 2-(2-((1-Isopropylpiperidin-4-yl)amino)-5-methoxyphenyl)-5,7-dimethoxyquinazolin-4(3H)-one]",Active,Active,Not Active,Active,–
"COc1ccc(-c2nc3cc(OC)cc(OC)c3c(=O)[nH]2)c(N[C@H]2CC[C@H](C(C)(C)O)CC2)c1 [Example 31, 2-(2-((trans-4-(2-Hydroxypropan-2-yl)cyclohexyl)amino)-4-methoxyphenyl)-5,7-dimethoxyquinazolin-4(3H)-one]",Active,–,Not Active,Active,253 °C (dec.)
"COc1cc(OC)c2c(=O)[nH]c(-c3ncccc3NC3CCN(C(C)=O)CC3)nc2c1 [Example 37, 2-(3-((1-Acetylpiperidin-4-yl)amino)pyridine-2-yl)-5,7-dimethoxyquinazolin-4(3H)-one]",Active,Active,Active,Active,–
